Source: patent US20140370048A1, “COMPOSITION FOR TREATMENT OR PREVENTION OF HYPERLIPIDEMIA, CONTAINING ALCOHOL EXTRACTS OF OLIGOPORUS TEPHROLEUCUS” (POSTECH ACADEMY-INDUSTRY FOUNDATION, priority 2011, published 2014)

Test system: cholesterol absorption in the digestive tract
Test: Amount of cholesterol absorption into blood from the digestive tract after oral 3H-cholesterol oleate in mice
Type: in vivo
Settings: 8-week old male Balb/c mouse, plasma six hours after administration, extract 20 ml of 10 mg/mL concentrated into 0.1 mL, Orlistat 400 μg (20 mg/kg), FIG. 2
Description: Cholesterol oleate (Amersham, 100 μCi/mL) radiolabeled with ^3H was mixed with 1% (w/v) sodium carboxylmethyl cellulose (CMC-Na), 1% (v/v) Tween 80, and a non-labeled cholesterol oleate, and then 0.1 mL of the mixture was forcibly administered into each mouse through an oral zonde so that 1 μCi could be delivered to each mouse. Here, the mouse in the control group (an 8-week old male Balb/c with body weight of 25 g) was treated with 400 μg of Orlistat (20 mg/kg), which has an inhibitory effect against cholesterol absorption, and the mouse in the experimental group (an 8-week old male Balb/c with body weight of 25 g) was treated with 20 ml of the ethanol extract (10 mg/mL) of Oligoporus tephroleucus prepared in the Example after concentrating it into 0.1 mL. Six hours after the administration, blood samples were collected from the mice, and plasma was obtained by centrifuging the blood at […] at the rate of 14000 rpm, and the radioactive dose was measured by a liquid scintillator (Beta counter, Beckman LS1801). The Control group was not treated with anything that may inhibit the absorption of cholesterol. The amount of cholesterol absorption was determined as a relative value by dividing the radioactive dose of each group into the radioactive dose of the control group, in which the radioactive dose of the control group was set at ‘1’.

SMILES: CCCCCCCCCCC[C@@H](C[C@@H]1OC(=O)[C@H]1CCCCCC)OC(=O)[C@H](CC(C)C)NC=O [Orlistat]
- inhibitory effect upon the cholesterol absorption (plasma radioactive dose relative to untreated control set at 1): significant inhibitory effect
